Reference: ChEMBL document CHEMBL3046477, “Carbamate derivatives of felbamate as potential anticonvulsant agents” (Med Chem Res, 2010)
Activity calls are given as the source filed them. The rule behind the calls is not given here.

Tests used:
[1] = tested on: Mus musculus; assay: Anticonvulsant activity in Mus musculus (mouse) assessed as protection against maximal electroshock-induced seizure at 300 mg/kg, ip; format: functional, organism-based; parameters: dose 300 mg/kg
[2] = tested on: Mus musculus; assay: Anticonvulsant activity in Mus musculus (mouse) assessed as protection against subcutaneous pentylenetetrazole-induced seizure at 300 mg/kg, ip; format: functional, organism-based; parameters: dose 300 mg/kg
[3] = tested on: Mus musculus; assay: Anticonvulsant activity in ip dosed Mus musculus Swiss Webster (mouse) assessed as protection against subcutaneous pentylenetetrazole-induced seizure at 0.5 hr; format: functional
[4] = tested on: Mus musculus; assay: Anticonvulsant activity in ip dosed Mus musculus Swiss Webster (mouse) assessed as protection against maximal electroshock-induced seizure at 0.5 hr; format: functional
[5] = tested on: Mus musculus; assay: Anticonvulsant activity in Mus musculus (mouse) assessed as protection against subcutaneous pentylenetetrazole-induced seizure up to 300 mg/kg, ip; format: functional, organism-based; parameters: dose 300 mg/kg
[6] = tested on: Rattus norvegicus; assay: Protective index, ratio of TD50 for po dosed Rattus norvegicus (rat) to ED50 for po dosed rat by subcutaneous pentylenetetrazole seizure test; format: functional
[7] = tested on: Rattus norvegicus; assay: Protective index, ratio of TD50 for po dosed Rattus norvegicus (rat) to ED50 for po dosed rat by maximal electroshock seizures test; format: functional
[8] = tested on: Rattus norvegicus; assay: Neurotoxicity in Rattus norvegicus (rat) assessed as minimal motor impairment at 20 mg/kg, ip at 60 min by rotorod test; format: toxicity, organism-based; parameters: dose 20 mg/kg, route intraperitoneal; conditions: in vivo, 1 h
[9] = tested on: Rattus norvegicus; assay: Neurotoxicity in Rattus norvegicus (rat) assessed as minimal motor impairment at 20 mg/kg, ip at 30 min by rotorod test; format: toxicity, organism-based; parameters: dose 20 mg/kg, route intraperitoneal; conditions: in vivo, 0.5 h
[10] = tested on: Rattus norvegicus; assay: Neurotoxicity in Rattus norvegicus (rat) assessed as minimal motor impairment at 20 mg/kg, ip at 5 min by rotorod test; format: toxicity, organism-based; parameters: dose 20 mg/kg, route intraperitoneal; conditions: in vivo
[11] = tested on: Rattus norvegicus; assay: Anticonvulsant activity in Rattus norvegicus (rat) assessed as protection against maximal electroshock-induced seizure at 20 mg/kg, ip at 30 min; format: functional, organism-based; parameters: dose 20 mg/kg
[12] = tested on: Rattus norvegicus; assay: Anticonvulsant activity in Rattus norvegicus (rat) assessed as protection against maximal electroshock-induced seizure at 20 mg/kg, ip at 15 min; format: functional, organism-based; parameters: dose 20 mg/kg
[13] = tested on: Mus musculus; assay: Anticonvulsant activity in Mus musculus (mouse) assessed as protection against maximal electroshock-induced seizure up to 300 mg/kg, ip; format: functional, organism-based; parameters: dose 300 mg/kg
[14] = Neurotoxicity in po dosed Rattus norvegicus (rat) assessed as minimal motor impairment by rotorod test; format: toxicity, organism-based; conditions: in vivo
[15] = tested on: Rattus norvegicus; assay: Anticonvulsant activity in po dosed Rattus norvegicus (rat) assessed as protection against subcutaneous pentylenetetrazole-induced seizure; format: functional
[16] = tested on: Rattus norvegicus; assay: Anticonvulsant activity in po dosed Rattus norvegicus (rat) assessed as protection against maximal electroshock-induced seizure; format: functional
[17] = tested on: Rattus norvegicus; assay: Anticonvulsant activity in Rattus norvegicus (rat) assessed as protection against maximal electroshock-induced seizure at 30 mg/kg, po; format: functional, organism-based; parameters: dose 30 mg/kg
[18] = tested on: Rattus norvegicus; assay: Neurotoxicity in Rattus norvegicus (rat) assessed as minimal motor impairment at 20 mg/kg, ip at 15 min by rotorod test; format: toxicity, organism-based; parameters: dose 20 mg/kg, route intraperitoneal; conditions: in vivo, 0.25 h
[19] = tested on: Rattus norvegicus; assay: Neurotoxicity in Rattus norvegicus (rat) assessed as minimal motor impairment at 20 mg/kg, ip at 10 min by rotorod test; format: toxicity, organism-based; parameters: dose 20 mg/kg, route intraperitoneal; conditions: in vivo
[20] = tested on: Mus musculus; assay: Anticonvulsant activity in Mus musculus Swiss Webster (mouse) assessed as protection against maximal electroshock-induced seizure at 300 mg/kg, ip at 0.5 hr; format: functional, organism-based; parameters: dose 300 mg/kg
[21] = tested on: Rattus norvegicus; assay: Anticonvulsant activity in ip dosed Rattus norvegicus (rat) assessed as protection against maximal electroshock-induced seizure; format: functional
[22] = Neurotoxicity in ip dosed Mus musculus (mouse) assessed as minimal motor impairment by rotorod test; format: toxicity, organism-based; conditions: in vivo
[23] = tested on: Mus musculus; assay: Anticonvulsant activity in ip dosed Mus musculus (mouse) assessed as protection against subcutaneous pentylenetetrazole-induced seizure; format: functional
[24] = tested on: Mus musculus; assay: Anticonvulsant activity in ip dosed Mus musculus (mouse) assessed as protection against maximal electroshock-induced seizures; format: functional
[25] = tested on: Mus musculus; assay: Anticonvulsant activity in Mus musculus (mouse) assessed as protection against maximal electroshock-induced seizure at 100 mg/kg, ip; format: functional, organism-based; parameters: dose 100 mg/kg
[26] = tested on: Rattus norvegicus; assay: Neurotoxicity in Rattus norvegicus (rat) at 300 mg/kg, ip; format: toxicity, organism-based; parameters: dose 300 mg/kg, route intraperitoneal; conditions: in vivo
[27] = tested on: Rattus norvegicus; assay: Anticonvulsant activity Rattus norvegicus (rat) assessed as reduction of hippocampus kindling at 100 mg/kg, ip; format: functional, organism-based; parameters: dose 100 mg/kg
[28] = Neurotoxicity in ip dosed Rattus norvegicus (rat) assessed as minimal motor impairment at 0.5 hr by rotorod test; format: toxicity, organism-based; conditions: in vivo
[29] = tested on: Mus musculus; assay: Anticonvulsant activity in Mus musculus Swiss Webster (mouse) assessed as protection against subcutaneous pentylenetetrazole-induced seizure up to 300 mg/kg, ip at 0.5 hr; format: functional, organism-based; parameters: dose 300 mg/kg

CCCC(CO)NC(=O)OCc1ccccc1 (racemic)
Activity [1]: Active
Activity [2]: Active
ED50 [3]: 281 mg/kg
ED50 [4]: 51.8 mg/kg

CC[C@H](CO)NC(=O)OCc1ccccc1
Activity [5]: inactive
Activity [1]: Active
ED50 [3]: 144 mg/kg
ED50 [4]: 80.5 mg/kg

C[C@@H](CO)NC(=O)OCc1ccccc1
Ratio TD50/ED50 [6]: 2.88
Ratio TD50/ED50 [7]: >5.3
Activity [8]: Non-toxic
Activity [9]: Non-toxic
Activity [10]: Non-toxic
Activity [11]: inactive
Activity [12]: inactive
Activity [13]: inactive
TD50 [14]: > 360 mg/kg
ED50 [15]: > 125 mg/kg
ED50 [16]: 67.6 mg/kg
Activity [17]: Active
Activity [5]: inactive
ED50 [3]: 258 mg/kg
ED50 [4]: 54.7 mg/kg
Activity [18]: Non-toxic
Activity [19]: Non-toxic

CC[C@@H](CO)NC(=O)OCc1ccccc1
Activity [5]: inactive
Activity [1]: Active
ED50 [3]: 111 mg/kg
ED50 [4]: 123 mg/kg

O=C(NCc1ccccc1)OCc1ccccc1 [BENZYL BENZYLCARBAMATE]
Activity [5]: inactive
Activity [1]: Active
ED50 [3]: 115 mg/kg
ED50 [4]: 170 mg/kg

NC(=O)OCc1ccccc1 [BENZYL CARBAMATE]
ED50 [3]: 80.2 mg/kg
ED50 [4]: 30.6 mg/kg

NC(=O)Oc1ccccc1 [CARBAMIC ACID PHENYL ESTER]
Activity [20]: Active
ED50 [3]: 101 mg/kg

CCC(COC(N)=O)c1ccccc1 (racemic)
ED50 [21]: 16.1 mg/kg
Ratio TD50/ED50 [6]: 8
Ratio TD50/ED50 [7]: >15.3
TD50 [14]: > 320 mg/kg
ED50 [15]: > 40 mg/kg
ED50 [16]: 21 mg/kg
Activity [17]: Active
TD50 [22]: 114 mg/kg
ED50 [23]: 87.6 mg/kg
ED50 [24]: 72.7 mg/kg
Activity [2]: Active
Activity [25]: Active
ED50 [3]: 124 mg/kg
ED50 [4]: 71.7 mg/kg
Activity [26]: Toxic
Activity [27]: inactive
TD50 at 0.5 h [28]: 50.5 mg/kg

CNC(=O)OCc1ccccc1 [BENZYL N-METHYLCARBAMATE]
Activity [29]: inactive
ED50 [4]: 40.5 mg/kg
